The values that follow come from patent publication US20150335596A1, “1-(2-FLUOROBIPHENYL-4-YL)-CYCLOPROPANECARBOXYLIC ACID DERIVATIVES FOR THE TREATMENT OF DOWN'S SYNDROME” (CHIESI FARMACEUTICI S.P.A., priority 2014, published 2015).

Common to all, as to format: in vivo, mouse
The test system of assay [1] is Ts65Dn mice. Put plainly: Y-maze test, spatial learning and memory. As for the experimental part:
(§1) The study was performed on Ts65Dn male, using the administration of CHF 5074 in the diet (375 ppm, equivalent to approximately 60 mg/kg/day).
(§2) The treatment started at 2 to 3 months of age and it was chronically administered in the diet for 15 months, until 19 months of age.
(§3) Treatment groups were: • Wild-type mice receiving standard diet (N=20) • Wild-type mice receiving CHF 5074-medicated diet (375 ppm, approximately 60 mg/kg/day) (N=20) • Ts65Dn mice receiving standard diet (N=20) • Ts65Dn mice receiving CHF 5074-mediacted diet (375 ppm, approximately 60 mg/kg/day) (N=20)
(§4) Animals were provided by Jackson Laboratory, Bar Harbor, Me., USA) in small cohorts. Ts65Dn segmental male trisomic mice were used. Ts65Dn mice were compared with diploid controls from the same litters.
Spatial learning and memory were assessed with the Y-maze test according to Stewart S et al., J Alzheimer Dis 2011; 26: 105-126, which is incorporated herein by reference in its entirety.
Animals were tested in a single trial Y maze task, to measure arm entries (A) and alternation (B). The percentage of spontaneous alternations is defined as (total alternations/total arm entries-2)×100.

In assay [2] the test system is Aβ40 and Aβ42. Kind of assay: Plasma Aβ40 and Aβ42 by ELISA. As to the method:
as §1, §2, §3
(§5) Aβ40 and Aβ42 were measured by ELISA in plasma and brain extracts (IBL kit for mouse Aβ40/Aβ42);
FIGS. 6 A and B illustrates the plasma levels of Aβ40 and Aβ42 peptides in animals after 15 months of treatment (19 months of age). There was a substantial increase in Aβ40 and Aβ42 plasma levels in Ts65Dn mice compared to wild-type animals.

The test system of the next assay is APP mRNA. Kind of assay: APP mRNA expression by real-time PCR in hippocampus and basal ganglia. Particulars: wild-type animals, medicated diet for 15 months.
In assay [3] the test system is Glial fibrillary acidic protein (GFAP). Kind of assay: Reactive astrocytes, GFAP immunoreactivity in hippocampus. The following applies: CA1/2 hippocampus, aged Ts65Dn mice, diet 375 ppm, vs Ts65Dn on standard diet. As for the experimental part:
as §1, §2, §3
(§6) Brain morphology was assessed by immunohistochemistry, immunofluorescence and quantitative morphometry and microdensitometry according to Imbimbo B P et al., J Alzheimer Dis 2010; 20:159-173; Sivilia S et al., BMC Neurosci 2013; 14: 44; and Guidi S et al., Brain 2014; 137: 380-401, all of which are incorporated herein by reference in their entireties. The following proteins were investigated:
Glial fibrillary acidic protein (GFAP) as astrocyte marker in hippocampus;

Assay [4] concerns Aβ40 and Aβ42. Kind of assay: Brain (cerebral cortex) Aβ40 and Aβ42 by ELISA. The following applies: after 15 months of treatment (19 months of age). As to the method:
as §1, §2, §3, §5
FIGS. 7 A, B, C, and D illustrates the brain (cerebral cortex) levels of Aβ40 and Aβ42 in animals after 15 months of treatment (19 months of age). Results are expressed as pmol/gr proteins (panels A and B), and as fmol/g wet tissue (panels C and D). There was a substantial increase in Aβ40 and Aβ42 brain levels in Ts65Dn mice compared to wild-type animals.

In assay [5] the test system is total APP/Aβ40/Aβ42 peptides. Put plainly: Intraneuronal APP immunohistochemistry and microdensitometry in cerebral cortex. The following applies: Ts65Dn mice treated vs control transgenic animals.
Experimental: Intraneuronal APP was measured by immunohistochemistry and computerized microdensitometry (Chemicon clone 22C11) in cerebral cortex;
For assay [6], the system named is Vesicular GABA transporter (VGAT). Kind of assay: VGAT immunostaining in hippocampus. Particulars: CA1/2 hippocampus, Ts65Dn mice, after 15 months of treatment. As for the experimental part:
as §1, §2, §3, §6
Vesicular GABA transporter (VGAT), as marker of GABAergic synapses in hippocampus;
(§7) FIG. 10 illustrates main markers of synaptic transmission in the CA1/2 regions of the hippocampus after 15 months of treatment (19 months of age). […] Panel B reports the variation of immunostaining for the glutamate transporter VGLUT1 with a substantial decrease in Ts65Dn mice compared to wild-type animals. […]

The subject of assay [7] is Ionized calcium binding adaptor molecule 1 (Iba1). Kind of assay: Activated microglia, Iba1 immunoreactivity in hippocampus. The following applies: CA1/2 hippocampus, aged Ts65Dn mice, diet 375 ppm, vs Ts65Dn on standard diet. As for the experimental part: as §1, §2, §3, §6
Ionized calcium binding adaptor molecule 1 (Iba1), as microglia marker in hippocampus;

Another assay has as its system Synaptophysin. Kind of assay: Synaptophysin immunostaining in hippocampus. Particulars: CA1/2 hippocampus, after 15 months of treatment, between experimental groups. As for the experimental part:
as §1, §2, §3, §6
Synaptophysin. It is a pre-synaptic vesicle membrane protein known to mediate vesicle release in hippocampus;
as §7

In assay [8] the test system is Amyloid precursor protein intracellular domain (AICD). Kind of assay: AICD immunoreactivity in CA1/2 hippocampal neurons. Particulars: CA1/2 hippocampal regions, Ts65Dn mice, p<0.0001.
Experimental: Amyloid precursor protein intracellular domain (AICD) (cleavage sites C83 and C99) in hippocampus.
Quantification was carried out by counting the percentage of neurons having AICD-positivity.
The test system of assay [9] is Ts65Dn mice. Kind of assay: CatWalk computerized gait analysis, locomotion. As to the method:
as §1, §2, §3, §4
Locomotion deficits were assessed with the CatWalk technology (gait analysis) according to Faizi M et al., Neurobiol Dis 2011; 43: 397-413, which is incorporated herein by reference in its entirety.
The print area of front and hind paws is presented, as corrected according to the individual animal body weight. […] CHF 5074 treatment normalized this gait parameter.

[10] abbreviates: wild-type and Ts65Dn mice, after 15 months of treatment (19 months of age).

Each structure is given as a SMILES string.

Experimental for APP mRNA: Molecular biology markers were measured in hippocampus and basal ganglia by real-time PCR, according to Massella A et al., BMC Neuroscience 2012; 13: 12; and D'Intino G et al., J Neuroendocrinol 2011; 23: 778-790, both of which are incorporated herein by reference in their entireties.

As to `O=C(O)C1(c2ccc(-c3ccc(Cl)c(Cl)c3)c(F)c2)CC1` [CHF 5074, 1-(3′,4′-dichloro-2-fluorobiphenyl-4-yl)cyclopropanecarboxylic acid], in the assay with Ts65Dn mice [1] (CHF 5074 in diet 375 ppm (approx. 60 mg/kg/day), tested after 6, 9 and 15 months of treatment), the “spontaneous alternation in Y maze (spatial memory)” value is given as “progressively normalized”. Further, the “spontaneous alternation in Y maze compared to wild-type mice” value in the assay with Ts65Dn mice [1] (diet 375 ppm, after 15 months of treatment) is “not significantly different”. Also, in the assay with Ts65Dn mice [1] (prolonged oral treatment), the “spatial memory deficit (study summary)” value is recorded as “attenuated”. In addition, in the assay with Aβ40 and Aβ42 [2] (setting [10]), the “plasma level of Aβ40” value is listed as “further increased” and the “plasma level of Aβ42” value was “further increased”. Besides, in the assay with Aβ40 and Aβ42 [2] (wild-type animals, after 15 months of treatment), the “significance of the increase in plasma Aβ42” value is recorded as “significant”. Besides, the “APP mRNA levels” value in the assay with APP mRNA is “slightly but significantly increased”. Also, the “GFAP-immunoreactivity (reactive astrocytes)” value in assay [3] was “substantial reduction”. For the same molecule, in the assay with Aβ40 and Aβ42 [4], the “brain Aβ40 levels” value was “did not modify significantly” and the “brain Aβ42 levels” value is on record as “did not modify significantly”. The “intracellular immunoreactivity of total APP/Aβ40/Aβ42 peptides in cortical neurons” value in assay [5] is reported as “significant decrease”. Besides, in assay [6], the “increase of immunostaining for the GABA transporter VGAT” value is on record as “completely reversed”. Also, the “Iba1-immunoreactivity (activated microglia)” value in assay [7] is “substantial reduction”. In the assay with Synaptophysin, the synaptophysin levels result is on record as “no significant differences”. Also, in assay [8], the “increase in percentage of AICD-positive neurons” value was “significantly attenuated”. The “hind paw print area (gait parameter, corrected for body weight)” value in the assay with Ts65Dn mice [9] (diet 375 ppm, after 15 months of treatment (19 months of age)) is “normalized”. The “locomotion deficit (study summary)” value in the assay on Ts65Dn mice [9] (prolonged oral treatment) is listed as “completely reversed”.
